# Laboratory results: patent publication US20160145300A1, “ARTIFICIAL DECAPEPTIDE, MEDICATION AND METHOD OF INDUCING BREEDING OF CRUSTACEANS” (National Pingtung University of Science and technology, priority 2014, published 2016)
# Marks after values point to notes of the source that are not given here.
# How the values were obtained:
# Type in all cases: in vivo
# [1] = system: male shrimps (Litopenaeus vannamei); test: maturity of spermatophore in male shrimps after administration of sustainable releasing dosage
# Method: After these, an effective amount of the artificially decapeptide is administrated to a crustacean, wherein, the effective amount of the artificially decapeptide may be 10 nanograms (ng) to 1000 ng, preferably 50 ng, per gram of body weight for each administrating. In one embodiment of the present embodiment a sustainable releasing dosage of the artificial decapeptide may be optionally prepared and administrated to the crustacean, so as to simplify the administration process. A method of preparing the sustainable releasing dosage of the artificially decapeptide, for example, may include formulating a great amount of the artificially decapeptide in an excipient, such as an excipient including oil. For example, 100 ng to 2000 ng of the artificially decapeptide may be formulated in 50 microliter (μl) to 200 μl of the excipient. With such arrangement, while the sustainable releasing dosage of the artificially decapeptide is administrated to the crustacean, the artificially decapeptide therein may be allowed to progressively release in the crustacean, thereby extending the inducing effect to the crustacean. […]
# (§1) In the present test, the artificial decapetide is firstly formulated in the aforementioned sustainable releasing dosage and then administrated to each Litopenaeus vannamei. After that, the spermatophore development of each male shrimp is determined and recorded every 4 days after the administration, through observing the external characteristics spermatophore. Also, the spermatophore weight, as well as the sperm count, is precisely measured 44 days after the administration. On the other hand, the ovarian development of each female shrimp is also determined and recorded weekly 2-4 months after the administration through observing the external characteristics and the maturity of ovarian. Furthermore, the spawning times of each female shrimp may be also recorded. […]
# [2] = system: female shrimps (Litopenaeus vannamei); test: ovarian development of female shrimps after administration; conditions: recorded weekly 2-4 months after the administration, percentage relative to overall Litopenaeus vannamei in the test
# Method: (§2) After these, an effective amount of the artificially decapeptide is administrated to a crustacean, wherein, the effective amount of the artificially decapeptide may be 10 nanograms (ng) to 1000 ng, preferably 50 ng, per gram of body weight for each administrating. In one embodiment of the present embodiment a sustainable releasing dosage of the artificial decapeptide may be optionally prepared and administrated to the crustacean, so as to simplify the administration process. A method of preparing the sustainable releasing dosage of the artificially decapeptide, for example, may include formulating a great amount of the artificially decapeptide in an excipient, such as an excipient including oil. For example, 100 ng to 2000 ng of the artificially decapeptide may be formulated in 50 microliter (μl) to 200 μl of the excipient. With such arrangement, while the sustainable releasing dosage of the artificially decapeptide is administrated to the crustacean, the artificially decapeptide therein may be allowed to progressively release in the crustacean, thereby extending the inducing effect to the crustacean. Thus, in another embodiment of the present invention, the sustainable releasing dosage of the artificially decapeptide may be administrated to the crustacean every three to six months, preferably every four months, but not limited thereto. In other embodiment of the present invention, the artificially decapeptide may also be firstly formulated in saline, to forma solvent, and then, mixed with the excipient, wherein a volume ratio between the solvent and the excipient may be 1:1 to 1:3. Furthermore, in another embodiment, the excipient may include mineral oil, such as […] or incomplete adjuvant; vegetable oil, such as peanut oil, olive oil or coconut oil; fat adhesive, such as methylcellulose; or a composite of the aforementioned oil.
# In the present test, the artificial decapeptide of the present invention is exemplified on numbers of Litopenaeus vannamei (Decapoda: Macrura). However, people in the art should easily realize the present invention is not limited thereto.
# In the present test, the artificial decapetide is firstly formulated in the aforementioned sustainable releasing dosage and then administrated to each Litopenaeus vannamei. After that, the spermatophore development of each male shrimp is determined and recorded every 4 days after the administration, through observing the external characteristics spermatophore. Also, the spermatophore weight, as well as the sperm count, is precisely measured 44 days after the administration. On the other hand, the ovarian development of each female shrimp is also determined and recorded weekly 2-4 months after the administration through observing the external characteristics and the maturity of ovarian. Furthermore, the spawning times of each female shrimp may be also recorded. Please refer to TABLEs 1-3 and FIGS. 1-2, which illustrate gonadal promoting effects of the artificial decapeptide either on male or female shrimps (Litopenaeus vannamei). Wherein, TABLE 1 and FIGS. 1-2 show the maturity of spermatophore in male shrimps, including the development stage, spermatophore weight and sperm count per spermatophore, after the artificial decapeptide is administrated, in comparison with untreated male shrimps (control; marked as B in FIGS. 1-2), respectively.
# [3] = system: female shrimps (Litopenaeus vannamei); test: spawning times of female shrimps after administration
# Method: as §2
# In the present test, the artificial decapeptide of the present invention is exemplified on numbers of Litopenaeus vannamei (Decapoda: Macrura). […]
# as §1
# [4] = 44 days after the administration
substance,measurement,setting,value
artificial decapeptide: Synthetic 10-amino-acid peptide based on chicken GnRH-II (SEQ ID NO: 2); N-terminal Glu and C-terminal Gly unblocked (H-EHWSHGWYPG-OH; listed as Gallus gallus),sperm count per spermatophore,[1]; [4],68.5 ± 18.14 10^5/per spermatophore
same,spermatophore weight,[1]; [4],0.0217 ± 0.007 g
same,spermatophore development stage reached,[1]; in 44 days after the administration,2.5
same,percentage of female shrimps at ovarian development stage 0,[2]; stage 0,0%^b
same,percentage of female shrimps at ovarian development stage 0.5,[2]; stage 0.5,20%^b
same,percentage of female shrimps at ovarian development stage 1,[2]; stage 1,0%^b
same,percentage of female shrimps at ovarian development stage 1.5,[2]; stage 1.5,0%^b
same,percentage of female shrimps at ovarian development stage 2,[2]; stage 2,0%^b
same,percentage of female shrimps at ovarian development stage 2.5,[2]; stage 2.5,0%^b
same,percentage of female shrimps at ovarian development stage 3,[2]; stage 3,0%^b
same,percentage of female shrimps with spawning times 0,"[3]; 0 spawnings, 8-16 weeks after administrating, percentage relative to overall Litopenaeus vannamei in the test",20%^b
same,percentage of female shrimps with spawning times 3,"[3]; 3 spawnings, 8-16 weeks after administrating, percentage relative to overall Litopenaeus vannamei in the test",0%^b
same,effective period,[3]; compared with current techniques (around one month),between two and four
same,number of spawnings induced,[3]; compared with current techniques (fewer times of spawning),four
